Data set [1] in a line: Theoretical saturated headspace concentration calculated from known vapor pressures. In kind it is physicochemical. The settings on record: calculated from known vapor pressures by Ideal Gas Law. As to the method: Because these compounds were difficult to quantitate by gas chromatography at the concentration levels in saturated headspaces, theoretical saturated concentrations were calculated by converting known vapor pressures of each compound at 25° C. to molar concentrations using the Ideal Gas Law, […], where n/V is the molar concentration, P is the partial pressure (atm), R is the Ideal Gas constant (0.0821 l atm/mol ° K.), and T is the temperature (° K.).

Data set [2] has as its system potato tubers. The data set is described as follows: Sprout inhibition of tubers exposed to compounds in headspace gas for 7 days (Example 1). It is filed as in vivo, Solanum tuberosum L. cv `Norchip`. The settings on record: 7 days in saturated headspace gas, 25° C.; for % Eyes Sprouted: dark, control 100, LSD (0.05) 12.
The test system of data set [3] is fungi. The data set is described as follows: Fungal growth on tubers exposed to compounds in headspace gas for 7 days (Example 1). On Fungal growth: key: -: no fungi visible; +: = some fungi; ++: heavy fungal growth. It is filed as in vivo. The source says:
(control flasks lacked any compounds).

The subject of data set [4] is potato tubers. The data set is described as follows: Tuber sprouting after removal from exposure to volatilized aromatics for 1, 2, 4, 7 or 10 days (Example 2). In kind it is in vivo, Solanum tuberosum L. cv `Norchip`. The settings on record: 14 days after removal; for % Eyes Sprouted: 25° C., LSD (0.05) 24. As to the method: (§1) Each treatment consisted of placing the tubers in sealed 9.2 l flasks containing excess levels of the treatment compounds at 25° C. as in Example 1. Three tubers were then removed from each treatment after 1, 2, 4, 7, and 10 days, and placed in flasks containing fresh humidified air (free of any additional volatilized compounds) at 25° C. Control tubers were placed in sealed flasks lacking any added compounds and three were removed after 1 and 10 days. Fourteen days after removal from the sealed flasks containing treatment compounds, all tubers were examined for percentage of eyes sprouted, tuber texture, and fungal growth. Each treatment was replicated once and each experiment was repeated once.

For data set [5], the system named is fungi. The data set is described as follows: Fungal growth on tubers after removal from exposure to volatilized aromatics (Example 2). It is filed as in vivo. As to the method: as §1
For data set [6], the system named is potato tubers. Put plainly: Tuber sprouting 14 days after direct application of aromatic compounds (Example 3). The settings on record: for % Eyes Sprouted: 25° C., control 98, LSD (0.05) 14. It is filed as in vivo, Solanum tuberosum L. cv `Norchip`.
Experimental: (§2) Because the aromatic aldehydes and alcohols may be applied to the stored potatoes by methods other than as volatiles, direct application of the compounds either as pure chemicals or as emulsions was also studied. Emulsions were prepared as either 1% or 10% (v/v) of each compound in distilled water containing 0.05% (v/v) Tween 80 as an emulsifier (control tubers were treated with Tween 80 only). Tubers were treated by dipping each tuber in the test emulsion for 10 seconds, whereupon excess liquid was allowed to drain off. Pure compounds in liquid phase were applied with an atomizing sprayer, ensuring that the entire tuber surface was coated. Each tuber was sprayed with approximately 0.1-0.2 ml of each compound tested. Six tubers per treatment were used, with two replicates, and all experiments were repeated once.
Data set [7] concerns fungi. Put plainly: Fungal growth 14 days after direct application of aromatic compounds (Example 3). Further: key: -: no fungi visible; +: = some fungi; ++: heavy fungal growth. It is filed as in vivo. The settings on record: control +.
Experimental: as §2
The subject of data set [8] is potato tubers. Put plainly: Tuber sprouting after removal from exposure to volatilized aromatics for 1, 2, 4, 7 or 10 days (Example 2). In kind it is in vivo, Solanum tuberosum L. cv `Norchip`. The settings on record: exposure for 10 days, 75 days after removal.
The conditions of data set [9]: cited from earlier work; for Temperature at Which Vapor Pressure Equals 1 mm Hg: vapor pressure 1 mm Hg.
In data set [10] the test system is potato tubers. The data set is described as follows: Tuber texture/quality after exposure to compounds in headspace gas for 7 days (Example 1). The settings on record: 7 days in saturated headspace gas, 25° C.
In data set [11] the test system is potato tubers. Put plainly: Tuber texture and quality 14 days after direct application of aromatic compounds (Example 3). The settings on record: for Tuber Texture: control SS.
Experimental: as §2
For another data set, the system named is potato. The settings on record: Aliaga and Feldheim (1985); cited from earlier work.
Where [12] appears, read: 7 days in saturated headspace gas, 25° C.
Setting [13] is: 7 days in saturated headspace gas, 25° C., control ++.
Setting [14] is: 1 day exposure, 14 days after removal, control +.
Where [15] appears, read: 4 days exposure, 14 days after removal.
The mark [16] stands for this setting: 7 days exposure, 14 days after removal.
Setting [17] is: 10 days exposure, 14 days after removal, control +.
The mark [18] stands for this setting: 2 days exposure, 14 days after removal.

Regarding `O=CC=Cc1ccccc1` [Cinnamaldehyde], the “Concentration of Saturated Headspace at 25° C.” value (“Concentration” for short) in data set [1] is 1.9 µM. For the same compound, the “effect on tuber sprouting” value with potato tubers [2] was “completely inhibited sprouting”. The “% Eyes Sprouted” value with potato tubers [2] came out at 0%; with potato tubers [4] (1 day exposure, control 96), 62%; with potato tubers [4] (2 days exposure) it was 80%; in the data set with potato tubers [4] (4 days exposure), 64%; in the data set on potato tubers [4] (7 days exposure), 24%; with potato tubers [4] (10 days exposure, control 100) it was 0%. Also, the “% Eyes Sprouted” value in the data set with potato tubers [6] (1% emulsion (dip)) worked out at 0%; in the data set on potato tubers [6] (10% emulsion (dip)) it was 0%; with potato tubers [6] (100% (pure, sprayed)) it was 0%. Also, the “effect on fungal growth” value in the data set on fungi [3] (setting [12]) was “prevented any visible fungal growth”. Besides, the “Fungal Growth” value in the data set with fungi [3] (setting [13]) is listed as “-”; with fungi [5] (setting [14]), “-”; with fungi [5] (setting [15]), “-”; in the data set with fungi [5] (setting [16]), “-”; in the data set with fungi [5] (setting [17]) it was “-”; in the data set with fungi [5] (14 days after removal from exposure) it was “a small amount of mycelia was detected in a bruised area”. For the same compound, the “Fungal Growth” value is recorded as “-” in the data set on fungi [7] (1% emulsion (dip)) and “-” with fungi [7] (100% (pure, sprayed)). For the same compound, the entries for the “inhibition of tuber sprouting” value in the data set on potato tubers [4] (exposure for 7 or fewer days) and in the data set on potato tubers [4] (exposure for 10 days) were “did not completely inhibit sprouting” and “completely inhibited sprouting”, respectively. Also, in the data set on potato tubers [6] (1% emulsion), the “inhibition of sprouting” value is “completely inhibited sprouting without damaging the potato tubers”. Moreover, the “sprouting” value with potato tubers [8] is on record as “remained unsprouted”. Moreover, the “Temperature at Which Vapor Pressure Equals 1 mm Hg” value (from here on “Temperature”) in [9] was 76.1 °C. Besides, the “Solubility in Water at 25° C.” value in data set [9] is given as “sl. soluble”. The “tuber condition” value was “firm and appeared healthy” in the data set on potato tubers [10]; “remained hard, with no necrosis or surface pitting” with potato tubers [11] (1% emulsion). Further, the “Tuber Texture” value in the data set with potato tubers [11] (10% emulsion (dip)) is reported as “S,N”; in the data set on potato tubers [11] (100% (pure, sprayed)) it was “S,N”.
For the compound `CC(C)c1ccc(C=O)cc1` [Cuminaldehyde], the “Concentration” value in data set [1] is 6.4 µM. Also, the “effect on tuber sprouting” value in the data set with potato tubers [2] is given as “completely inhibited sprouting”. Further, the “% Eyes Sprouted” value in the data set on potato tubers [2] worked out at 0%; in the data set on potato tubers [4] (1 day exposure, control 96), 63%; in the data set on potato tubers [4] (2 days exposure), 68%; with potato tubers [4] (4 days exposure), 49%; in the data set on potato tubers [4] (7 days exposure), 8%; in the data set on potato tubers [4] (10 days exposure, control 100), 0%. In addition, the “% Eyes Sprouted” value in the data set on potato tubers [6] (1% emulsion (dip)) is 5%; in the data set with potato tubers [6] (10% emulsion (dip)), 43%; with potato tubers [6] (100% (pure, sprayed)), 0%. Also, in the data set with fungi [3] (setting [12]), the “effect on fungal growth” value is “prevented any visible fungal growth”. Moreover, the “Fungal Growth” value with fungi [3] (setting [13]), with fungi [5] (setting [14]), in the data set with fungi [5] (setting [18]), in the data set on fungi [5] (setting [15]), in the data set on fungi [5] (setting [16]) and with fungi [5] (setting [17]) was “-” throughout. In addition, the “Fungal Growth” value with fungi [7] (1% emulsion (dip)) is reported as “-”; in the data set with fungi [7] (100% (pure, sprayed)) it was “-”. Besides, the “inhibition of tuber sprouting” value is reported as “did not completely inhibit sprouting” with potato tubers [4] (exposure for 7 or fewer days) and “completely inhibited sprouting” in the data set with potato tubers [4] (exposure for 10 days). In addition, in the data set on potato tubers [8], the “sprouting” value is recorded as “remained unsprouted”. Moreover, the “Temperature” value in data set [9] was 58.0 °C. In addition, the “Solubility in Water at 25° C.” value in data set [9] is given as “insoluble”. In addition, the “tuber condition” value with potato tubers [10] is “firm and appeared healthy”. Further, the “Tuber Texture” value in the data set with potato tubers [11] (10% emulsion (dip)) is given as “SS,N”; in the data set with potato tubers [11] (100% (pure, sprayed)), “SS,N”.
Regarding `CCOC(=O)C=Cc1ccccc1` [Ethyl cinnamate], the “Concentration” value in data set [1] was 0.7 µM. Moreover, in the data set on potato tubers [2], the “effect on tuber sprouting” value was “suppressed sprouting to some degree” and the “% Eyes Sprouted” value came out at 64%. Further, the “Fungal Growth” value in the data set with fungi [3] (setting [13]) is given as “+”. Moreover, in [9], the “Temperature” value is 87.6 °C and the “Solubility in Water at 25° C.” value was “insoluble”.
Turning to `C=CCc1ccc(O)c(OC)c1` [Eugenol, reference compound], the “Concentration” value in data set [1] is 1.6 µM. Besides, the “effect on tuber sprouting” value in the data set on potato tubers [2] is given as “no significant effect on tuber sprouting”. Moreover, the “% Eyes Sprouted” value in the data set on potato tubers [2] is reported as 94%; in the data set on potato tubers [6] (1% emulsion (dip)), 32%; with potato tubers [6] (10% emulsion (dip)) it was 7%; in the data set on potato tubers [6] (100% (pure, sprayed)), 0%. The “effect on fungal growth” value with fungi [3] (setting [12]) is recorded as “especially heavy growth”. The “Fungal Growth” value is listed as “++” in the data set on fungi [3] (setting [13]); “++” with fungi [7] (1% emulsion (dip)); “-” in the data set on fungi [7] (100% (pure, sprayed)). Also, the “Temperature” value in data set [9] is 78.4 °C. Also, the “tuber condition” value in the data set with potato tubers [10] is recorded as “remained firm”. For the same compound, the “Tuber Texture” value with potato tubers [11] (10% emulsion (dip)) was “SS,N”; in the data set on potato tubers [11] (100% (pure, sprayed)), “S,N”.
`O=CCCc1ccccc1` [Hydrocinnamaldehyde, 3-phenyl-propanal]: the “effect on tuber sprouting” value in the data set with potato tubers [2] is listed as “completely inhibited sprouting”. Further, the “% Eyes Sprouted” value was 0% in the data set on potato tubers [2]; 90% in the data set with potato tubers [4] (1 day exposure, control 96); 79% in the data set with potato tubers [4] (2 days exposure); 66% in the data set on potato tubers [4] (4 days exposure); 51% with potato tubers [4] (7 days exposure); 24% in the data set with potato tubers [4] (10 days exposure, control 100). Also, the “% Eyes Sprouted” value in the data set with potato tubers [6] (1% emulsion (dip)) was found to be 25%; with potato tubers [6] (10% emulsion (dip)), 0%; with potato tubers [6] (100% (pure, sprayed)), 0%. Besides, in the data set on fungi [3] (setting [12]), the “effect on fungal growth” value is on record as “prevented any visible fungal growth”. For the same compound, the “Fungal Growth” value in the data set on fungi [3] (setting [13]), with fungi [5] (setting [14]), with fungi [5] (setting [18]), in the data set with fungi [5] (setting [15]), with fungi [5] (setting [16]) and in the data set with fungi [5] (setting [17]) was “-” throughout. In addition, the “Fungal Growth” value in the data set with fungi [7] (1% emulsion (dip)) is “-”; in the data set on fungi [7] (10% emulsion (dip)) it was “++”; in the data set with fungi [7] (100% (pure, sprayed)) it was “-”. Moreover, the “Solubility in Water at 25° C.” value in [9] is reported as “sl. soluble”. Further, the “tuber condition” value in the data set with potato tubers [10] was “firm and appeared healthy”. The “Tuber Texture” value is recorded as “S” with potato tubers [11] (10% emulsion (dip)) and “S,N” in the data set with potato tubers [11] (100% (pure, sprayed)).
`COC(=O)C=Cc1ccccc1` [Methyl cinnamate]: the “Concentration” value in data set [1] was 1.6 µM. Also, in the data set on potato tubers [2], the “effect on tuber sprouting” value is on record as “suppressed sprouting to some degree” and the “% Eyes Sprouted” value stood at 16%. Besides, in the data set on fungi [3] (setting [12]), the “effect on fungal growth” value was “suppressed fungal growth”. Besides, in the data set on fungi [3] (setting [13]), the “Fungal Growth” value was “-”. In data set [9], the “Temperature” value was 77.4 °C and the “Solubility in Water at 25° C.” value is given as “insoluble”.
`Oc1ccccc1` [Phenol]: the “Concentration” value in data set [1] was 21 µM. For the same compound, in the data set on potato tubers [2], the “effect on tuber sprouting” value is recorded as “completely inhibited sprouting” and the “% Eyes Sprouted” value is recorded as 0%. Also, in the data set with fungi [3] (in vivo), the “Fungal Growth” value is on record as “-” and the “effect on fungal growth” value is “prevented any visible fungal growth”. Further, the “Temperature” value in data set [9] was 40.1 °C. For the same compound, the “tuber condition” value in the data set with potato tubers [10] is “blackened, soft to the touch, and displayed evident tissue necrosis”. Also, the “Tuber Texture” value in the data set on potato tubers [10] (control SS) is reported as “S,N”.
In the case of `C=C(C)C1CC=C(C)CC1` (centres unmarked) [limonene], in the data set on potato, the “effectiveness of main oil components in inhibiting sprouting, weight loss and rot” value was “effective”.
`CC1CCC(C(C)C)C(=O)C1` (centres unmarked) [menthone/isomenthone]: in the data set on potato, the “effectiveness of main oil components in inhibiting sprouting, weight loss and rot” value is “effective”.
On to `CC(C)=C1CC[C@@H](C)CC1=O` [pulegone], for which the “effectiveness of main oil components in inhibiting sprouting, weight loss and rot” value in the data set with potato is “effective”.
On to `CC1=CCC2CC1C2(C)C` (stereo not drawn) [α-pinene], for which the “effectiveness of main oil components in inhibiting sprouting, weight loss and rot” value in the data set on potato is on record as “effective”.
As to `C=C1CCC2CC1C2(C)C` (stereo not drawn) [β-pinene], the “effectiveness of main oil components in inhibiting sprouting, weight loss and rot” value in the data set on potato is “effective”.
